From patent US9051596B2, “Method for screening inhibitory substances to inflammatory skin-aging” (AMOREPACIFIC CORPORATION, priority 2011, dated 2015)

B1: IFN-γ: interferon-γ acquired from Sigma Aldrich, enhances inflammatory stimulation by LPS (protein, UniProt P01579 24-161, looked up)
Interferon gamma: QDPYVKEAENLKKYFNAGHSDVADNGTLFLGILKNWKEESDRKIMQSQIVSFYFKLFKNFKDDQSIQKSVETIKEDMNVKFFNSNKKKRDDFEKLTNYSVTDLNVQRKAIHELIQVMAELSPAAKTGKRKRSQMLFRG

Assays:
Type in all cases: cell-based, human
[1] = test system: TNF-α; test: Production of TNF-α in THP-1 cells treated with glycitein and stimulants (TNF-α ELISA kit); settings: THP-1 cells, 0, 0.1, 1 and 10 μM glycitein, then 1 μg/mL LPS and 500 UNITs IFN-γ, FIG. 9
Method: THP-1 cells (acquired from Korean Cell Line Bank) were seeded onto a 6-well plate, with 5×10^5 cells per well, and treated with 0, 0.1, 1 and 10 μM glycitein. […] After culturing for 24 hours, the culture medium was centrifuged at 1000 rpm for 3 minutes and the supernatant was taken. The concentration of TNF-α in the culture medium was determined using a TNF-α ELISA kit.

[2] = test system: THP-1 cells; test: Viability of THP-1 cells treated with glycitein, optionally with LPS and IFN-γ (cell counting kit); settings: 24 hours
Method: (§1) THP-1 cells (acquired from Korean Cell Line Bank) were seeded onto a 96-well plate, with 3×10^4 cells per well, and cultured in an RPMI-1640 medium (acquired from Lonza) containing 10% (v/v) FBS, 100 U/mL penicillin and 100 μg/mL streptomycin under the condition of 37° C. and 5% CO2 for 24 hours. […] After treating with a cell counting kit reagent, with 1/10 the volume of each well, and culturing for 2 hours, O.D. value was measured using SpectraMax.

[3] = test system: inflammatory cytokines; test: Production of inflammatory cytokines in THP-1 cells treated with glycitein and stimulants (cytokine array kit); settings: 10 μM glycitein, then 1 μg/mL LPS and 500 UNITs IFN-γ, FIG. 10
Method: THP-1 cells (acquired from Korean Cell Line Bank) were seeded onto a 6-well plate, with 5×10^5 cells per well, and treated with 10 μM glycitein. […] The cells untreated or treated only with the stimulant were used as a control group. The culture medium was centrifuged at 1000 rpm for 3 minutes and the supernatant was taken. The inflammatory cytokines included in the cell culture medium were identified using a cytokine array kit (R&D Systems).

[4] = test system: NHF cells; test: Viability of NHF cells treated with glycitein and stimulants (cell counting kit); settings: 0.1-10 μM glycitein together with 1 μg/mL LPS and 500 UNITs IFN-γ, 24 hours, FIG. 11
Method: as §1, with “NHF” for “THP-1”, “Lonza)” for “Korean Cell Line Bank)”, “1×10^4” for “3×10^4”, “a DMEM” for “an RPMI-1640”, “hours, then” for “hours,”

[5] = test system: MMP-1; test: Production of MMP-1 in NHF cells treated with glycitein and stimulated THP-1 cell culture medium (MMP-1 assay kit); settings: NHF cells pretreated with 10 μM glycitein, then stimulated THP-1 culture medium, FIG. 12
Method: THP-1 cells (acquired from Korean Cell Line Bank) were seeded onto a 6-well plate, with 5×10^5 cells per well, and cultured in an RPMI-1640 medium (acquired from Lonza) containing 10% (v/v) FBS, 100 U/mL penicillin and 100 μg/mL streptomycin under the condition of 37° C. and 5% CO2 for 24 hours. Also, NHF cells (acquired from Lonza) were seeded onto a 24-well plate, with 3×10^4 cells per well, and cultured in a DMEM medium (acquired from Lonza) containing 10% (v/v) FBS, 100 U/mL penicillin and 100 μg/mL streptomycin under the condition of 37° C. and 5% CO2 for 24 hours. […] The THP-1 cell culture medium was centrifuged at 1000 rpm for 3 minutes and the supernatant was taken. The NHF cells were treated with the supernatant. NHF cells treated with serum-free DMEM (acquired from Lonza) were used as an untreated group. After culturing for 24 hours, the concentration of MMP-1 in the NHF cells was measured using an MMP-1 assay kit and the ratio of the concentration of MMP-1 relative to the untreated group was calculated.

[6] = test system: THP-1 cells; test: Viability of THP-1 cells treated with LPS and IFN-γ (cell counting kit)
Method: as §1, with “hours, cell viability was determined by measuring” for “hours,”, “value” for “value was measured”

[7] = test system: TNF-α; test: Production of TNF-α in THP-1 cells treated with LPS and/or IFN-γ (TNF-α ELISA kit); settings: IFN-γ alone, all concentrations (250, 500, 1000 UNITs), FIG. 1
Method: THP-1 cells (acquired from Korean Cell Line Bank) were seeded onto a 6-well plate, with 5×10^5 cells per well, and cultured in an RPMI-1640 medium (acquired from Lonza) containing 10% (v/v) FBS, 100 U/mL penicillin and 100 μg/mL streptomycin under the condition of 37° C. and 5% CO2 for 24 hours. Subsequently, the cells were cultured for 24 hours after treating with three kinds of LPS derived from Escherichia coli (E. coli O111:B4, E. coli O55:B5 and E. coli EH100) and two kinds of LPS derived from Salmonella [Salmonella typhosa (S. typhosa) and Salmonella typhimurium (S. typhimurium), acquired from Sigma Aldrich], at concentrations of 0, 0.1 and 1 μg/mL, and with 0, 250, 500 and 1000 UNITs of INF-γ (acquired from Sigma Aldrich). Subsequently, the culture medium was centrifuged at 1000 rpm for 3 minutes and the supernatant was taken and then the concentration of TNF-α in the supernatant was determined using a TNF-α ELISA kit.

| Molecule | concentration of TNF-α [1] | cytotoxicity ([2]; glycitein alone, 10 μM or lower, FIG. 7) | cytotoxicity ([2]; glycitein together with 1 μg/mL LPS and 500 UNITs IFN-γ, FIG. 8) | amount of the inflammatory cytokines produced upon treatment with the stimulant [3] | cytotoxicity [4] | production of MMP-1 [5] | cytotoxicity [6] | effect on the production of TNF-α [7] |
| --- | --- | --- | --- | --- | --- | --- | --- | --- |
| COc1cc2c(=O)c(-c3ccc(O)cc3)coc2cc1O [glycitein] | lower as the concentration of glycitein increased | no cytotoxicity | no cytotoxicity | decreased | no cytotoxicity | decreased production of MMP-1 | – | – |
| B1 | – | – | – | – | – | – | no cytotoxicity | no effect |
